Experiments:
[1] = target: α4β2 nAChR (Homo sapiens (Human), UniProt P17787+P43681); type: binding; conditions: ratio of Ki values
Method: HEK 293 cells were grown in Dulbecco's modified Eagle medium supplemented with 10% fetal bovine serum, 1% L-Glutamine, 100 units/ml penicillin G, and 100 μg/streptomycin in a humidified atmosphere containing 10% CO2. The cDNAs encoding α3 and β4 or α4 and β2 (were transfected into the HEK 293 cells at 30% confluency). The cell transfections were carried out in 100 mm Petri dishes using 30 μL of JetPEI™ (Polypus, France) (1 mg/ml, pH 7.2) and 3 μg of each cDNA. After 24 h transfection, the cells were collected, washed with PBS by centrifugation, and used for binding analysis.
[^3H]-epibatidine saturation binding experiments to HEK transfected α3β4 or α4β2 receptors were performed by means of overnight incubation at 4° C. at concentrations ranging from 0.005 to 1 nM in a buffer containing 50 mM Tris-HCl, pH 7, 150 mM NaCl, 5 mM KCl, 1 mM MgCl2, 2.5 mM CaCl2 and 2 mg/ml BSA, in the presence (aspecific binding) or absence (total binding) of 100 nM cold epibatidine. Specific ligand binding was defined as total binding minus the binding in the presence of 100 nM cold epibatidine.
After incubation, the membranes of HEK cells transfected with α4β2* or α3β4 subtypes were washed by filtration on GFC filters with ice-cold PBS. The GFC filters were pre-soaked in polyethylenimine and filtered through an harvester apparatus. [^3H]-epibatidine binding was determined by means of liquid scintillation counting in a beta counter.
The ligand binding data were analyzed by means of nonlinear regression using Prism version 5 (GraphPad Software, Inc., La Jolla, Calif.). The Ki values were calculated from the experimental IC50 values using the Cheng-Prusoff equation for a single population of competitive sites: Ki=IC50/[1+(L/Kd)], where L is the concentration of radioligand used in each experiment and the Kd values were determined by saturation binding experiment. All of the assays were performed in duplicate and repeated at least two-three times.

[2] = target: α7 nAChRs (Homo sapiens (Human), UniProt P36544); type: cell-based; conditions: compounds at 100 μM, relative to 1 mM ACh
Method: (§1) Compounds of the invention were tested for effects on the function of human α4β2, α3β4 and α7 nicotinic acetylcholine receptors (nAChRs) expressed heterologously in Xenopus oocytes. […] Expression in oocytes was obtained as follows: pCI (Promega, UK) plasmid containing human α4, β2, β4 or α7 complementary DNA were injected as previously described (Moroni et al., 2006). To express (α4)3(β2)2 nACh receptors, a mixture of 10α4:1β2 cDNAs was injected into the nucleus of oocytes, whereas for (α4)2(β2)3 receptors the cDNA ratio injected was 1α4:10β2.
(§2) Functional studies: Recordings were performed manually using a Geneclamp amplifier (Molecular Devices, USA) or using an automated HiClamp system. In both cases the oocytes were impaled with two electrodes filled with 3 M KCl and the cells were held at −60 mV throughout the experiments.
(§3) Oocyte isolation and two-electrode voltage-clamp recordings on oocytes were carried out as previously described (Moroni et al., 2006; Carbone et al., 2009). […] A minimum interval of 5 min was allowed between agonist applications to ensure reproducible recordings. Oocytes were exposed to increasing concentrations of the compounds until no further increases in the response amplitude were obtained. This concentration was taken as the concentration that causes maximal responses on the receptors tested. The data summarised in Tables 1-4 were obtained from at least 5 experiments carried out on oocytes obtained from at least three different donors.

[3] = target: α3β4 nAChRs (Homo sapiens (Human), UniProt P30926+P32297); test: Maximal gating efficacy on α3β4 nAChRs in Xenopus oocytes, two electrode voltage clamp; type: cell-based; conditions: maximal current relative to 1 mM ACh
Method: as §1, §2, §3
Maximal gating efficacy of the compounds on α3β4 nAChRs: The concentration of the compounds causing maximal activation of α3β4 nAChRs expressed heterologously in Xenopus oocytes was determined using two electrode voltage clamping.

[4] = target: (α4)2(β2)3 nAChRs (Homo sapiens (Human), UniProt P17787+P43681); test: Maximal gating efficacy on (α4)2(β2)3 nAChRs in Xenopus oocytes, two electrode voltage clamp; type: cell-based; conditions: (α4)2(β2)3, high sensitivity receptors; maximal current relative to 1 mM ACh
Method: as §1, §2, §3
Maximal gating efficacy of compounds on (α4)2(β2)3 receptors (high sensitivity receptors): The concentration of the compounds causing maximal activation of the (α4)2(β2)3 nAChRs expressed heterologously in Xenopus oocytes was determined using two electrode voltage clamping.

[5] = target: (α4)3(β2)2 nAChRs (Homo sapiens (Human), UniProt P17787+P43681); test: Maximal gating efficacy on (α4)3(β2)2 nAChRs in Xenopus oocytes, two electrode voltage clamp; type: cell-based; conditions: (α4)3(β2)2, low sensitivity stoichiometry; maximal current relative to 1 mM ACh
Method: as §1, §2, §3
Maximal gating efficacy of the compounds: The concentration of the compounds of the invention causing maximal activation of the (α4)3(β2)2 nAChRs expressed heterologously in Xenopus oocytes was determined using two electrode voltage clamping.

Sequence of (α4)3(β2)2 nAChRs (P43681 29-627): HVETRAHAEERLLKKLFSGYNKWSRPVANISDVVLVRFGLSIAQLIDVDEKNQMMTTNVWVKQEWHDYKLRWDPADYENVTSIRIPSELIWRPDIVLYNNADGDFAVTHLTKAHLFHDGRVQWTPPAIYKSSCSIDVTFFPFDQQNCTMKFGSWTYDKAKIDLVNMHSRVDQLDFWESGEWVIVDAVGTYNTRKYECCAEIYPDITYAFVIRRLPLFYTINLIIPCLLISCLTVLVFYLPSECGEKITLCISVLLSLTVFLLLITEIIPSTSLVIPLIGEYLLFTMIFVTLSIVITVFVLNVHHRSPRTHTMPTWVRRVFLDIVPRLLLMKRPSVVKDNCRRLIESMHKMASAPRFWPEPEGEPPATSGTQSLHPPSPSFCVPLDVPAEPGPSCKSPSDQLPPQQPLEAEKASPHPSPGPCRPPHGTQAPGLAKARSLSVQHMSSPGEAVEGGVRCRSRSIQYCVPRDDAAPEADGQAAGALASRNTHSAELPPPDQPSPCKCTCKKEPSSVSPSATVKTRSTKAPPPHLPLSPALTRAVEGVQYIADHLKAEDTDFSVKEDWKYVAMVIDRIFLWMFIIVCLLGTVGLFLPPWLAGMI
Sequence of (α4)3(β2)2 nAChRs (P17787 26-502): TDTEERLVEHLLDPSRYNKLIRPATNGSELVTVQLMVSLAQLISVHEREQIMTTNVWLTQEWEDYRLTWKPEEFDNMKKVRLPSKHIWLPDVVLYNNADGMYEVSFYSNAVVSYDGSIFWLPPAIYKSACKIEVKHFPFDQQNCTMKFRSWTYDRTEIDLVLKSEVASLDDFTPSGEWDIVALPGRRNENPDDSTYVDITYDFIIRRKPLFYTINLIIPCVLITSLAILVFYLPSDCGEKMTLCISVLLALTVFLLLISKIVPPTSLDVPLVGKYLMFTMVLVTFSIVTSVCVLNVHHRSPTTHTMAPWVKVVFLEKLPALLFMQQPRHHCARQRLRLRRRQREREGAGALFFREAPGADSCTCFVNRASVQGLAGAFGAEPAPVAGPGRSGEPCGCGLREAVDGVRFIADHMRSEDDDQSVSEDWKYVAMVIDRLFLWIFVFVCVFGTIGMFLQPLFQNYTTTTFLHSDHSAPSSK
Sequence of α4β2 nAChR (P43681 29-627 limits assumed): as the sequence (P43681 29-627) above
Sequence of α4β2 nAChR (P17787 26-502 limits assumed): as the sequence (P17787 26-502) above
Sequence of (α4)2(β2)3 nAChRs (P43681 29-627): as the sequence (P43681 29-627) above
Sequence of (α4)2(β2)3 nAChRs (P17787 26-502): as the sequence (P17787 26-502) above
Sequence of α3β4 nAChRs (P32297 32-505): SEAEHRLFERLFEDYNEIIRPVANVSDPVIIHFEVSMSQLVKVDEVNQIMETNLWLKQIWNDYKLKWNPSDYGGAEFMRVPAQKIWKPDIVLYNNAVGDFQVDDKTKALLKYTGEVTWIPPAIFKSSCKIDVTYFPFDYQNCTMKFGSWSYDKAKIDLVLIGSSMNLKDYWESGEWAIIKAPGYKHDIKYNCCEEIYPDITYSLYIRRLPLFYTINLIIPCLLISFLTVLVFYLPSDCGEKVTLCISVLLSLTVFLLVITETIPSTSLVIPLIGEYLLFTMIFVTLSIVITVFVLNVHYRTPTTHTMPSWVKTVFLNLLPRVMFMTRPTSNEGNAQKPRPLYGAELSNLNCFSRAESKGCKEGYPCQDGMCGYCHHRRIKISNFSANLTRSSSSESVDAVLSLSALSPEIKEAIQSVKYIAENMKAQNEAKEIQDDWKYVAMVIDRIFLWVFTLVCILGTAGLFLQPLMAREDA
Sequence of α3β4 nAChRs (P30926 22-498): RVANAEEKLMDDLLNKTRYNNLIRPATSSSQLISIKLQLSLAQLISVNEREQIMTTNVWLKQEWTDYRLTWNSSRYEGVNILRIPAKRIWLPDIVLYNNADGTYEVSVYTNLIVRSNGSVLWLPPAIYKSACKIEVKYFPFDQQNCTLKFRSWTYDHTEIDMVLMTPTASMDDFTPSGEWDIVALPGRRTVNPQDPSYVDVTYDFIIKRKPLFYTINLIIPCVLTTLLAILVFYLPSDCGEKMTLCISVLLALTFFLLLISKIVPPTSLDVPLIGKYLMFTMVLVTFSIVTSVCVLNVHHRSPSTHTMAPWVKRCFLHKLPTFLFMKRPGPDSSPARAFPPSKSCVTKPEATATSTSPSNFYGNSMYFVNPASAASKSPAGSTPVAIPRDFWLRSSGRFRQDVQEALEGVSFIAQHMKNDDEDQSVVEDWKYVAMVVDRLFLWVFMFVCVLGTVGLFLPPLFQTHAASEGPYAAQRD
Sequence of α7 nAChRs (P36544 23-502): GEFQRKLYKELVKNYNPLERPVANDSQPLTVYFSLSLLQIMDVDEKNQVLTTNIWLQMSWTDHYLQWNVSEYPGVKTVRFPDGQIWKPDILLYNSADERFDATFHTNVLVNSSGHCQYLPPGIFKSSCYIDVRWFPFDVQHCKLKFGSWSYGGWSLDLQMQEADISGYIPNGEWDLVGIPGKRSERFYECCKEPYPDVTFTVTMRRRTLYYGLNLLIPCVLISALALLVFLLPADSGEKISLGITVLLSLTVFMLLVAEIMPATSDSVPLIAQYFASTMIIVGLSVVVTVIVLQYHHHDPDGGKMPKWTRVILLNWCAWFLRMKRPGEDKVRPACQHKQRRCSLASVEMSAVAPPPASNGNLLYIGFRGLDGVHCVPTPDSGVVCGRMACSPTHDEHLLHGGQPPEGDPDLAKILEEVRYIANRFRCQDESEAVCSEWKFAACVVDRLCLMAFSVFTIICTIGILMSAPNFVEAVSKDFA

## CCc1cc2n(c(=O)c1)CC1CNC[C@@H]2C1.Cl (single isomer, unassigned; (-)) [Compound 118, (−)4-Ethylcytisine]
[1]
  Ratio α3β4/α4β2: 1901.3
[2]
  Relative efficacy (ACh): 0.0057 ± 0.0028
[3]
  Relative efficacy (ACh): 0.086 ± 0.106
[4]
  Relative efficacy (ACh): 0.062 ± 0.025
[5]
  Relative efficacy (ACh): 0.036 ± 0.055

## O=c1cc(Cl)cc2n1CC1CNC[C@@H]2C1 (single isomer, unassigned; (-)) [Compound 60, (−)4-Chlorocytisine]
[1]
  Ratio α3β4/α4β2: 328.6
[2]
  Relative efficacy (ACh): 0.38 ± 0.09
[3]
  Relative efficacy (ACh): 0.133 ± 0.017
[4]
  Relative efficacy (ACh): 0.01 ± 0.007
[5]
  Relative efficacy (ACh): 0.110 ± 0.08

## C#Cc1cc2n(c(=O)c1)CC1CNC[C@@H]2C1.Cl (single isomer, unassigned; (-)) [Compound 127, (−)4-(acetylenyl)cytisine]
[1]
  Ratio α3β4/α4β2: 710.5
[2]
  Relative efficacy (ACh): 0.17 ± 0.03
[3]
  Relative efficacy (ACh): 0.165 ± 0.064
[4]
  Relative efficacy (ACh): 0.009 ± 0.0009
[5]
  Relative efficacy (ACh): 0.071 ± 0.009

## CNc1cc2n(c(=O)c1Br)CC1CNC[C@@H]2C1 (single isomer, unassigned; (+)) [Compound 158, (+)3-Bromo-4-N-methylaminocytisine]
[1]
  Ratio α3β4/α4β2: 106.9
[3]
  Relative efficacy (ACh): 0.057 ± 0.016
[4]
  Relative efficacy (ACh): 0.038 ± 0.054
[5]
  Relative efficacy (ACh): 0.049 ± 0.012

## O=c1cc(Br)cc2n1CC1CNC[C@@H]2C1 (single isomer, unassigned; (-)) [Compound 62, (−)4-Bromocytisine]
[1]
  Ratio α3β4/α4β2: 303.4
[2]
  Relative efficacy (ACh): 0.28 ± 0.01
[3]
  Relative efficacy (ACh): 0.184 ± 0.046
[4]
  Relative efficacy (ACh): 0.009 ± 0.0001
[5]
  Relative efficacy (ACh): 0.057 ± 0.007

## CC(=O)Nc1cc2n(c(=O)c1)CC1CNC[C@@H]2C1.Cl (single isomer, unassigned; (+)) [Compound 94, (+)4-(N-acetylamino)cytisine]
[1]
  Ratio α3β4/α4β2: 751.0
[2]
  Relative efficacy (ACh): 0.0001 ± 0.00001
[3]
  Relative efficacy (ACh): 0.055 ± 0.047
[4]
  Relative efficacy (ACh): 0.001 ± 0.0006
[5]
  Relative efficacy (ACh): 0.153 ± 0.006

## Cl.O=c1cc(CO)cc2n1CC1CNC[C@@H]2C1 (single isomer, unassigned; (-)) [Compound 122, (−)4-(Hydroxymethyl)cytisine]
[1]
  Ratio α3β4/α4β2: 73.0
[2]
  Relative efficacy (ACh): 0.0067 ± 0.0015
[3]
  Relative efficacy (ACh): 0.015 ± 0.020
[4]
  Relative efficacy (ACh): 0.025 ± 0.000
[5]
  Relative efficacy (ACh): 0.058 ± 0.057

## O=c1cc(O)cc2n1CC1CNC[C@@H]2C1 (single isomer, unassigned; (+)) [Compound 67, (+)4-Hydroxycytisine]
[1]
  Ratio α3β4/α4β2: 397.8
[2]
  Relative efficacy (ACh): No response at 100 μM
[3]
  Relative efficacy (ACh): 0.047 ± 0.036
[4]
  Relative efficacy (ACh): 0.005 ± 0.0001
[5]
  Relative efficacy (ACh): 0.07 ± 0.009

## CC(=O)NCc1cc2n(c(=O)c1)CC1CNC[C@@H]2C1.Cl (single isomer, unassigned; (-)) [Compound 148]
[1]
  Ratio α3β4/α4β2: 204.8
[3]
  Relative efficacy (ACh): 0.034 ± 0.038
[4]
  Relative efficacy (ACh): 0.015 ± 0.021
[5]
  Relative efficacy (ACh): 0.041 ± 0.057

## c1cnc2cc3c(cc2n1)[C@@H]1CNC[C@H]3C1 [Varenicline, reference compound]
[2]
  Relative efficacy (ACh): 0.96 ± 0.03
[3]
  Relative efficacy (ACh): 0.51 ± 0.09
[4]
  Relative efficacy (ACh): 0.14 ± 0.03
[5]
  Relative efficacy (ACh): 0.40 ± 0.09

## COc1cc2n(c(=O)c1)CC1CNC[C@@H]2C1 (single isomer, unassigned; (-)) [Compound 69, (−)4-Methoxycytisine]
[1]
  Ratio α3β4/α4β2: 206.1
[2]
  Relative efficacy (ACh): 0.061 ± 0.09
[3]
  Relative efficacy (ACh): 0.044 ± 0.059
[4]
  Relative efficacy (ACh): 0.009 ± 0.0008
[5]
  Relative efficacy (ACh): 0.071 ± 0.009

## Cc1cc2n(c(=O)c1)CC1CNC[C@@H]2C1.Cl (single isomer, unassigned; (-)) [Compound 110, (−)4-Methylcytisine]
[1]
  Ratio α3β4/α4β2: 864.3
[2]
  Relative efficacy (ACh): 0.0017 ± 0.0024
[3]
  Relative efficacy (ACh): 0.0708 ± 0.059
[4]
  Relative efficacy (ACh): 0.041 ± 0.004
[5]
  Relative efficacy (ACh): 0.014 ± 0.007

## CCNc1cc2n(c(=O)c1)CC1CNCC2C1 (single isomer, unassigned; (+)) [Compound 87, (+)4-(N-ethylamino)cytisine]
[1]
  Ratio α3β4/α4β2: 835.2
[3]
  Relative efficacy (ACh): 0.010 ± 0.009
[4]
  Relative efficacy (ACh): 0.023 ± 0.032
[5]
  Relative efficacy (ACh): 0.011 ± 0.001

## Cl.O=c1c(C(F)(F)F)c(Br)cc2n1CC1CNC[C@@H]2C1 (single isomer, unassigned; (-)) [Compound 162, (−)3-(Trifluoromethyl)-4-bromocytisine]
[1]
  Ratio α3β4/α4β2: 136.4
[3]
  Relative efficacy (ACh): 0.250 ± 0.077
[4]
  Relative efficacy (ACh): 0.042 ± 0.060
[5]
  Relative efficacy (ACh): 0.072 ± 0.026

## COC(=O)c1cc2n(c(=O)c1)CC1CNC[C@@H]2C1 (single isomer, unassigned; (-)) [Compound 119, (−)4-carboxymethycytisine]
[1]
  Ratio α3β4/α4β2: 366.5
[3]
  Relative efficacy (ACh): 0.040 ± 0.049
[4]
  Relative efficacy (ACh): 0.0065 ± 0.0005
[5]
  Relative efficacy (ACh): 0.021 ± 0.007

## CNc1cc2n(c(=O)c1)CC1CNC[C@@H]2C1 (single isomer, unassigned; (+)) [Compound 84, (+)4-(N-Methylamino)cytisine]
[1]
  Ratio α3β4/α4β2: 2546.3
[3]
  Relative efficacy (ACh): 0.0233 ± 0.005
[4]
  Relative efficacy (ACh): 0.042 ± 0.059
[5]
  Relative efficacy (ACh): 0.048 ± 0.040
